Data from patent US8772199B2, “Herbicidal compositions for tolerant or resistant maize crops” (Bayer Intellectual Property GmbH, priority 1998, dated 2014).
Where a name gives a salt, the structure may show the parent alone.

Legend:
Assay in all cases: Field trial with maize, herbicidal action
Assay type in all cases: in vivo
Commelina benghalensis = conditions: application 3-leaf stage, scoring 42 days after application
Protocol: (§1) Transgenic maize plants with a resistance to one or more herbicides (A) together with typical weed plants were grown in the open on 2×5 m plots under natural field conditions; alternatively, weed infestation occurred naturally when the maize plants were grown.
(§2) 2, 4, 6 and 8 weeks after the application, the herbicidal activity of the active substances or active substance mixtures was scored visually with reference to the treated plots in comparison to untreated control plots. The damage to, and the development of, all aerial parts of the plants was recorded. Scoring was done on the basis of a percentage sale (100% action=all plants destroyed; 50% action=50% of the plants and green parts of the plants destroyed; 0% action=no recognizable effect=like control plot. The mean of the score values of in each case 4 plots was calculated.

Sorghum halepense = conditions: application 4-leaf stage, scoring 28 days after application
Protocol: as §1, §2

Brachiaria plantaginea = conditions: application 2-leaf stage, scoring 28 days after application
Protocol: as §1, §2

SMILES: CP(=O)(O)CCC(N)C(=O)O (stereo not drawn) [(A1.2), glufosinate-monoammonium salt]
- Herbicidal action (%) against Commelina benghalensis (Commelina benghalensis; 100 g of a.s./ha): 43%
- Herbicidal action (%) against Commelina benghalensis (Commelina benghalensis; 200 g of a.s./ha): 60.0%
- Herbicidal action (%) against Commelina benghalensis (Commelina benghalensis; 300 g of a.s./ha): 63%
- Herbicidal action (%) against Commelina benghalensis (Commelina benghalensis; 600 g of a.s./ha): 82%
- Herbicidal action (%) against Sorghum halepense (Sorghum halepense; 300 g of a.s./ha): 15%
- Herbicidal action (%) against Sorghum halepense (Sorghum halepense; 500 g of a.s./ha): 53%
- Herbicidal action (%) against Brachiaria plantaginea (Brachiaria plantaginea; 150 g of a.s./ha): 5%
- Herbicidal action (%) against Brachiaria plantaginea (Brachiaria plantaginea; 300 g of a.s./ha): 45%
- Herbicidal action (%) against Brachiaria plantaginea (Brachiaria plantaginea; 600 g of a.s./ha): 70%
